Key:
velvetleaf = test: Test B pre/postemergence velvetleaf; assay type: in vivo, Abutilon theophrasti
Method in brief: (§1)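 Response is a visual 0-to-10 score relative to untreated plants, where 0 means no effect and 10 means complete control, taken twelve to sixteen days after application. Treatments went onto soil at planting and onto foliage of 1- to 4-leaf plants, using a surfactant-containing non-phytotoxic solvent.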

giant foxtail = test: Test B pre/postemergence giant foxtail; assay type: in vivo, Setaria faberii
Method in brief: as §1

sugar beet = test: Test B pre/postemergence sugar beet; assay type: in vivo, Beta vulgaris
Method in brief: as §1

duck salad = test: Test B flood test duck salad; assay type: in vivo, Heteranthera limosa
Method in brief: (§2)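 Plants were grown to the 2-leaf stage before treatment with test chemical, then held in a greenhouse for twelve to sixteen days. Injury was visually rated against untreated controls on a 0–10 scale, where 0 is no effect and 10 is complete control.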

morningglory = test: Test B pre/postemergence morningglory; assay type: in vivo, Ipomoea hederacea
Method in brief: as §1

rape = test: Test B pre/postemergence rape; assay type: in vivo, Brassica napus
Method in brief: as §1

purple nutsedge = test: Test B pre/postemergence purple nutsedge; assay type: in vivo, Cyperus rotundus
Method in brief: as §1

bamyardgrass = test: Test B flood test barnyardgrass; assay type: in vivo, Echinochloa crus-galli
Method in brief: as §2

blackgrass = test: Test B pre/postemergence blackgrass; assay type: in vivo, Alopecurus myosuroides
Method in brief: as §1

wild oat = test: Test B pre/postemergence wild oat; assay type: in vivo, Avena fatua
Method in brief: as §1

smallflower flatsedge = test: Test B flood test smallflower flatsedge; assay type: in vivo, Cyperus difformis
Method in brief: as §2

wheat = test: Test B pre/postemergence wheat; assay type: in vivo, Triticum aestivum
Method in brief: as §1

rice = test: Test B flood test rice; assay type: in vivo, Oryza sativa
Method in brief: as §2

cocklebur = test: Test B pre/postemergence cocklebur; assay type: in vivo, Xanthium strumarium
Method in brief: as §1

pigweed = test: Test B pre/postemergence pigweed; assay type: in vivo, Amaranthus retroflexus
Method in brief: as §1

soybean = test: Test B pre/postemergence soybean; assay type: in vivo, Glycine max
Method in brief: as §1

[1] = Preemergence, Rate 62 g/ha, scale of 0 to 10 where 0 is no effect and 10 is complete control
[2] = Preemergence, Rate 250 g/ha, scale of 0 to 10 where 0 is no effect and 10 is complete control
[3] = Preemergence, Rate 500 g/ha, scale of 0 to 10 where 0 is no effect and 10 is complete control
[4] = Rate 125 g/ha, Postemergence, scale of 0 to 10 where 0 is no effect and 10 is complete control
[5] = Rate 125 g/ha, Preemergence, scale of 0 to 10 where 0 is no effect and 10 is complete control
[6] = Rate 250 g/ha, Postemergence, scale of 0 to 10 where 0 is no effect and 10 is complete control
[7] = Rate 500 g/ha, Postemergence, scale 0 to 10, 0 no effect, 10 complete control
[8] = Rate 62 g/ha, headed Pre-emergence (flood test species), scale 0 to 10 (0 no effect, 10 complete control)
[9] = Rate 125 g/ha, Pre-emergence, flood test species, scale 0 to 10 where 0 is no effect and 10 is complete control
[10] = Rate 250 g/ha, Pre-emergence, flood-test species, scale 0 to 10, 0 is no effect, 10 is complete control
[11] = Rate 500 g/ha, Pre-emergence, flood test species, scale 0 to 10 (0 no effect, 10 complete control)
[12] = Rate 62 g/ha, Postemergence, scale of 0 to 10 where 0 is no effect and 10 is complete control

CC(C)N(C(=O)n1oc(=O)n(Cc2ccccn2)c1=O)c1ccc(F)cc1 [Compound 267]
Velvetleaf plant response rating (velvetleaf; [1]): 0 | Velvetleaf plant response rating (velvetleaf; [2]): 0 | Plant response rating, Velvetleaf (velvetleaf; [3]): 3 | Velvetleaf plant response rating (velvetleaf; [4]): 0 | Velvetleaf plant response rating (velvetleaf; [5]): 0 | Plant response rating, Velvetleaf (velvetleaf; [6]): 1 | Velvetleaf plant response rating (velvetleaf; [7]): 3 | Giant foxtail plant response rating (giant foxtail; [1]): 8 | Giant foxtail plant response rating (giant foxtail; [2]): 9 | Plant response rating, Giant foxtail (giant foxtail; [3]): 9 | Giant foxtail plant response rating (giant foxtail; [4]): 0 | Giant foxtail plant response rating (giant foxtail; [5]): 8 | Plant response rating, Giant foxtail (giant foxtail; [6]): 2 | Giant foxtail plant response rating (giant foxtail; [7]): 7 | Sugarbeets plant response rating (sugar beet; [1]): 0 | Sugarbeets plant response rating (sugar beet; [2]): 0 | Plant response rating, Sugarbeets (sugar beet; [3]): 5 | Sugarbeets plant response rating (sugar beet; [4]): 0 | Sugarbeets plant response rating (sugar beet; [5]): 0 | Plant response rating, Sugarbeets (sugar beet; [6]): 2 | Sugarbeets plant response rating (sugar beet; [7]): 4 | Ducksalad plant response rating (duck salad; [8]): 0 | Ducksalad plant response rating (duck salad; [9]): 0 | Ducksalad plant response rating (duck salad; [10]): 0 | Ducksalad plant response rating (duck salad; [11]): 0 | Morningglory plant response rating (morningglory; [1]): 0 | Morningglory plant response rating (morningglory; [2]): 0 | Plant response rating, Morningglory (morningglory; [3]): 0 | Morningglory plant response rating (morningglory; [4]): 1 | Morningglory plant response rating (morningglory; [5]): 0 | Plant response rating, Morningglory (morningglory; [6]): 3 | Morningglory plant response rating (morningglory; [7]): 8 | Rape plant response rating (rape; [1]): 0 | Rape plant response rating (rape; [2]): 0 | Plant response rating, Rape (rape; [3]): 0 | Rape plant response rating (rape; [4]): 0 | Rape plant response rating (rape; [5]): 0 | Plant response rating, Rape (rape; [6]): 0 | Rape plant response rating (rape; [7]): 2 | Nutsedge plant response rating (purple nutsedge; [1]): 0 | Nutsedge plant response rating (purple nutsedge; [2]): 0 | Plant response rating, Nutsedge (purple nutsedge; [3]): 0 | Nutsedge plant response rating (purple nutsedge; [4]): 0 | Nutsedge plant response rating (purple nutsedge; [5]): 0 | Plant response rating, Nutsedge (purple nutsedge; [6]): 0 | Nutsedge plant response rating (purple nutsedge; [7]): 4 | Barnyardgrass plant response rating (bamyardgrass; [8]): 0 | Barnyardgrass plant response rating (bamyardgrass; [9]): 0 | Barnyardgrass plant response rating (bamyardgrass; [10]): 0 | Barnyardgrass plant response rating (bamyardgrass; [11]): 0 | Blackgrass plant response rating (blackgrass; [1]): 0 | Blackgrass plant response rating (blackgrass; [2]): 2 | Plant response rating, Blackgrass (blackgrass; [3]): 8 | Blackgrass plant response rating (blackgrass; [12]): 0 | Blackgrass plant response rating (blackgrass; [4]): 0 | Blackgrass plant response rating (blackgrass; [5]): 2 | Plant response rating, Blackgrass (blackgrass; [6]): 5 | Blackgrass plant response rating (blackgrass; [7]): 8 | Wild oats plant response rating (wild oat; [1]): 0 | Wild oats plant response rating (wild oat; [2]): 0 | Plant response rating, Wild oats (wild oat; [3]): 2 | Wild oats plant response rating (wild oat; [4]): 0 | Wild oats plant response rating (wild oat; [5]): 0 | Plant response rating, Wild oats (wild oat; [6]): 2 | Wild oats plant response rating (wild oat; [7]): 4 | S. Flatsedge plant response rating (smallflower flatsedge; [8]): 0 | S. Flatsedge plant response rating (smallflower flatsedge; [9]): 0 | S. Flatsedge plant response rating (smallflower flatsedge; [10]): 0 | S. Flatsedge plant response rating (smallflower flatsedge; [11]): 0 | Wheat plant response rating (wheat; [1]): 0 | Wheat plant response rating (wheat; [2]): 0 | Plant response rating, Wheat (wheat; [3]): 0 | Wheat plant response rating (wheat; [4]): 0 | Wheat plant response rating (wheat; [5]): 0 | Plant response rating, Wheat (wheat; [6]): 3 | Wheat plant response rating (wheat; [7]): 4 | Rice plant response rating (rice; [8]): 0 | Rice plant response rating (rice; [9]): 0 | Rice plant response rating (rice; [10]): 0 | Rice plant response rating (rice; [11]): 0 | Cocklebur plant response rating (cocklebur; [1]): 0 | Cocklebur plant response rating (cocklebur; [2]): 0 | Plant response rating, Cocklebur (cocklebur; [3]): 0 | Cocklebur plant response rating (cocklebur; [12]): 0 | Cocklebur plant response rating (cocklebur; [4]): 0 | Cocklebur plant response rating (cocklebur; [5]): 0 | Plant response rating, Cocklebur (cocklebur; [6]): 1 | Cocklebur plant response rating (cocklebur; [7]): 3 | Redroot pigweed plant response rating (pigweed; [1]): 0 | Redroot pigweed plant response rating (pigweed; [2]): 6 | Plant response rating, Redroot pigweed (pigweed; [3]): 7 | Redroot pigweed plant response rating (pigweed; [4]): 0 | Redroot pigweed plant response rating (pigweed; [5]): 3 | Plant response rating, Redroot pigweed (pigweed; [6]): 0 | Redroot pigweed plant response rating (pigweed; [7]): 6 | Soybean plant response rating (soybean; [1]): 0 | Soybean plant response rating (soybean; [2]): 0 | Plant response rating, Soybean (soybean; [3]): 0 | Soybean plant response rating (soybean; [4]): 2 | Soybean plant response rating (soybean; [5]): 0 | Plant response rating, Soybean (soybean; [6]): 3 | Soybean plant response rating (soybean; [7]): 6

From patent US6737383B1, “Herbicidal oxadiazolidines” (priority 1999, dated 2004)
